Test results from patent US11434212B2, “Bicyclic compound as a caspase inhibitor” (CHIA TAI TIANQING PHARMACEUTICAL GROUP CO., LTD., priority 2017, dated 2022).

What was measured:
Caspase-1 = molecular target: T1, Caspase-1 (Homo sapiens, UniProt P29466); test: In vitro inhibitory activity on Caspase-1 (BioVision Caspase-1 Inhibitor Screening Kit); type: biochemical; settings: fluorogenic substrate 50 μM; test concentrations 1000 nM to 0.32 nM
T1 construct: purchased BioVision K151-100
T1 sequence (P29466 120-297 limits assumed): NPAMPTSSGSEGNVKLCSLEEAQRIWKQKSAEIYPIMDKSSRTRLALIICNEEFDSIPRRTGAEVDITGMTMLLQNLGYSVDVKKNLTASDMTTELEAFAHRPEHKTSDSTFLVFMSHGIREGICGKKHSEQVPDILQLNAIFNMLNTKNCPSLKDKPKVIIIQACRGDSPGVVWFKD
T1 sequence (P29466 317-404 limits assumed): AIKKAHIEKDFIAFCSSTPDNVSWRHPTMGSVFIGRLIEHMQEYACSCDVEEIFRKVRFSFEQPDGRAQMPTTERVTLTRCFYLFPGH
Method: (§1) Caspase Inhibitor Screening Kit for BioVision was used in this experiment to test the inhibitory activity of the test compounds on Caspase.
Caspase-1 Inhibitor Screening Kit (BioVision #K151-100)
(§2) Note: Each caspase enzymatic experiment uses the reagents in corresponding kit thereof. Each enzyme was dissolved in 550 μl of the corresponding 2× reaction buffer, sub-packed and stored at −80° C., respectively.
(§3) 1) The compound was diluted to a 200*test concentration with DMSO via the multiple dilution, then to a 2*test concentration with ddH2O, and added to a 384-well experimental plate at 12.5 μl per well. Test compounds and control compounds were tested at 6 concentration points, test concentrations ranging from 1000 nM to 0.32 nM. The ddH2O containing 1% DMSO was added to the 0% inhibition control well, and a high concentration of the control compound was added to the 100% inhibition control well (final concentration: 5 μM).
(§4) 2) 2× reaction buffer containing 10 mM DTT was prepared. The enzyme caspase stock solution was diluted 5-fold with 2× reaction buffer containing 10 mM DTT and added to a 384-well experimental plate at 6.25 μl per well. After being mixed, the enzyme and compounds were incubated at 37° C. for 30 minutes.
(§5) 3) The fluorogenic substrate of the enzyme caspase was diluted 5-fold with 2× reaction buffer containing 10 mM DTT, and then added to a 384-well experimental plate at 6.25 μl per well. The total reaction volume was 25 μl, the final concentration of the substrate was 50 μM, and the final concentration of DMSO was 0.5%. After the substrate was added, the 384-well experimental plate was incubated at 37° C. for 30 minutes.
(§6) 4) The fluorescence intensity (excitation light wavelength was 400 nm, emission light wavelength was 505 nm) was measured by using a multi-function microplate reader. Fluorescence intensity was used to calculate the inhibitory effect of the compounds on Caspase. GraphPad Prism software was used for fitting compound inhibition curves and calculating IC50 values.

Caspase-8 = molecular target: T2, Caspase-8 (Homo sapiens, UniProt Q14790); test: In vitro inhibitory activity on Caspase-8 (BioVision Caspase-8 Inhibitor Screening Kit); type: biochemical; settings: fluorogenic substrate 50 μM; test concentrations 1000 nM to 0.32 nM
T2 construct: purchased BioVision K158-100
Method: as §1
Caspase-8 Inhibitor Screening Kit (BioVision #K158-100)
as §2, §3, §4, §5, §6

Caspase-3 = molecular target: T3, Caspase-3 (Homo sapiens, UniProt P42574); test: In vitro inhibitory activity on Caspase-3 (BioVision Caspase-3 Inhibitor Screening Kit); type: biochemical; settings: fluorogenic substrate 50 μM; test concentrations 1000 nM to 0.32 nM
T3 construct: purchased BioVision K153-100
T3 sequence (P42574 29-175 limits assumed): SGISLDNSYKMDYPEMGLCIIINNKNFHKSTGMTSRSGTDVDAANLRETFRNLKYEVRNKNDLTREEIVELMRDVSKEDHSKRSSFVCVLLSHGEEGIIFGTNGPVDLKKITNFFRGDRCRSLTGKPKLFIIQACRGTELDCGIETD
T3 sequence (P42574 176-277 limits assumed): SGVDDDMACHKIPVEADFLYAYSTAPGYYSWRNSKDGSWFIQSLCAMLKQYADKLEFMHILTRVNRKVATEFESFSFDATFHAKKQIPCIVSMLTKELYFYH
Method: as §1
Caspase-3 Inhibitor Screening Kit (BioVision #K153-100)
as §2, §3, §4, §5, §6

[1] = system: CCl4-induced chronic liver fibrosis model; test: Pharmacodynamic study in CCl4-induced chronic liver fibrosis model; type: in vivo, male C57BL/6 mice; set-up: Total score of liver injury / Ballooning change score: scale not given here
Method: The therapeutic effects of the test compound IDN-6556 and the compound of Example 1 in the CCl4-induced chronic liver fibrosis model of male C57BL/6 mice were tested.
Male C57BL/6 mice were randomly divided into 7 groups: pseudo model group (group 1), model group (group 2, solvent p.o., q.d), IDN-6556 (group 3, 3 mg/kg, p.o., bid), IDN-6556 (group 4, 10 mg/kg, p.o., bid), Example 1 (group 5, 3 mg/kg, p.o., bid), Example 1 (group 6, 10 mg/kg, p.o., bid)), Example 1 (group 7, 20 mg/kg, p.o., bid). CCl4 was formulated into a CCl4-olive oil mixed solution according to the doses by using olive oil, modeling is performed by orally administration three times a week for 4 weeks; and the pseudo model group was orally administered with the same volume of olive oil alone. Compounds were orally administrated from the day of modeling, twice a day for 28 days, while the pseudo model group and the model group were orally administered with an equal volume of drug solvent. On the next day after the last administration, the animals were fasted for 6 hours, followed by euthanizing, and the livers were collected. Liver tissues were fixed in 10% formalin solution for histopathological analysis.

[2] = Mouse pharmacokinetic study in plasma and liver after oral administration; type: in vivo, male C57BL/6J mice
Description: This experiment intended to investigate the pharmacokinetics in plasma and liver of male C57BL/6J mice after oral administration of the compounds.
Mice were randomly divided into three groups (3 male mice per group). The compound was formulated into the specified formulation. Oral formulations may be clear or uniform suspensions. Animals were intragastrically administered with a given dose of the preparation, respectively.
Whole blood samples were collected from animals through jugular vein puncture at 3 time points of 30 minutes, 2 hours, and 6 hours after administration, approximately 25 μL per sample; while the liver was collected at each time point.
The plasma samples were added to centrifuge tubes containing anticoagulant, and centrifuged at 4° C., 3000 g for 15 min, and the supernatant plasma was taken and quickly frozen on dry ice and then stored in a refrigerator at −70±10° C. until LC-MS/MS analysis was performed.
The blood outside the liver was sopped up with absorbent paper, and the weight of the liver was weighed, and then placed in liquid nitrogen to freeze. MeOH/15 mM PBS (1:2) at a volume-weight ratio of 1:5 was added thereto, and then the homogenization was performed at 14000 rpm for 2 minutes. It was then stored in a refrigerator at −70±10° C. until LC-MS/MS analysis was performed.
The plasma drug concentration data for the compounds were processed with the non-compartment model using WinNonlin™ Version 6.3.0 (Pharsight, Mountain View, Calif.) pharmacokinetic software. The maximal concentration (Cmax), maximal concentration time (Tmax) and quantitative end time were directly obtained from the plasma concentration-time chart.
The following pharmacokinetic parameters were calculated by using logarithmic linear trapezoidal method: elimination phase half-life (T1/2); the in vivo mean residence time of the drug from point 0 to the last time point (MRT0-last); the in vivo mean residence time of the drug from point 0 to infinite time (MRT0-ifn); the area under time-plasma concentration curve from point 0 to the last time point (AUC0-last); the area under time-plasma concentration curve from point 0 to infinite time (AUC0-inf).
For individual plasma concentrations less than BQL, the one occurred before Tmax was calculated as 0, and the one occurred after Tmax was directly excluded. All parameters and ratios were reported in the forms of three significant digits.
The pharmacokinetic parameters of this experiment were calculated according to the theoretical blood collection times and the theoretical administration concentrations in the protocol. The deviations between the actual administration concentrations and the theoretical concentrations were within the range of ±20%. The deviations between the actual blood collection times and the theoretical blood collection times were in conformity with the relevant SOP (the points within 1 hour after administration were within the range of ±1 min, and the others were within 5% of the theoretical time).

[3] = 3 mg/kg, p.o., bid, 28 days, mean ± sem
[4] = 10 mg/kg, p.o., bid, 28 days, mean ± sem
[5] = different doses, oral twice a day for 28 days, vs model group
[6] = oral administration, 0.5-6 h samples

T2 sequence (Q14790 217-374 limits assumed): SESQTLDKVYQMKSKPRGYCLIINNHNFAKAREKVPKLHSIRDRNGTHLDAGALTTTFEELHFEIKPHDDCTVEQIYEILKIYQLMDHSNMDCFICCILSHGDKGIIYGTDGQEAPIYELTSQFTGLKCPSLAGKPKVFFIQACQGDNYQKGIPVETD
T2 sequence (Q14790 385-479 limits assumed): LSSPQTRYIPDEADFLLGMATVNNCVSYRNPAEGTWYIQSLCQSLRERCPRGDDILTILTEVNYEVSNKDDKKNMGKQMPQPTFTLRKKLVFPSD

Row | IC50 (Caspase-1) [nM] | IC50 (Caspase-8) [nM] | IC50 (Caspase-3) [nM] | Compound | further results
1 | 6.9 | 30 | 20.2 | C[C@H](NC(=O)c1coc(-c2ccccc2)n1)C(=O)N[C@@H](CC(=O)O)C(=O)COc1c(F)c(F)cc(F)c1F [Example 7] | –
2 | 5.5 | 18 | 21.8 | C[C@H](NC(=O)c1cc(-c2ccccc2)no1)C(=O)N[C@@H](CC(=O)O)C(=O)COc1c(F)c(F)cc(F)c1F [Example 8] | –
3 | 14.2 | 23.2 | 44.4 | C[C@H](NC(=O)c1cc(-c2ccccc2)on1)C(=O)N[C@@H](CC(=O)O)C(=O)COc1c(F)c(F)cc(F)c1F [Example 9] | –
4 | 6.6 | 16.3 | 22 | C[C@H](NC(=O)c1cc(-c2cccc(Cl)c2)on1)C(=O)N[C@@H](CC(=O)O)C(=O)COc1c(F)c(F)cc(F)c1F [Example 10] | –
5 | 9.2 | 22.6 | 30 | C[C@H](NC(=O)c1cc(-c2ccccc2C(F)(F)F)on1)C(=O)N[C@@H](CC(=O)O)C(=O)COc1c(F)c(F)cc(F)c1F [Example 11] | –
6 | 6.7 | 17.9 | 21 | C[C@H](NC(=O)c1cc(-c2ccccc2F)on1)C(=O)N[C@@H](CC(=O)O)C(=O)COc1c(F)c(F)cc(F)c1F [Example 12] | –
7 | – | – | – | C[C@H](NC(=O)C(=O)Nc1ccccc1C(C)(C)C)C(=O)N[C@@H](CC(=O)O)C(=O)COc1c(F)c(F)cc(F)c1F [IDN-6556, reference compound] | Ballooning change score [1, 3]: 0.05 ± 0.04; Inflammatory cell infiltration [1, 3]: 1.55 ± 0.06; Percentage of liver fibrosis [1, 3]: 1.84 ± 0.07%; Total score of liver injury [1, 3]: 1.60 ± 0.07; Ballooning change score [1, 4]: 0.08 ± 0.04; Percentage of liver fibrosis [1, 4]: 1.86 ± 0.12%; Total score of liver injury [1, 4]: 1.43 ± 0.12; Effect on CCl4-induced liver tissue damage (in words) [1, 5]: significantly inhibit; Inhibitory effect on liver fibrosis (in words) [1, 5]: no clear inhibitory effect; Effect on CCl4-induced liver tissue damage (in words) ([1]; different doses, oral twice a day for 28 days, vs model group, listed as IND-6556): significantly improve; Liver drug concentration ([2]; 0.5 h after oral (intragastric) administration): 8600 nmol/kg; Liver drug concentration ([2]; 2 h after oral (intragastric) administration): 930 nmol/kg; Liver drug concentration ([2]; 6 h after oral (intragastric) administration): 230 nmol/kg; concentration at 0.5 h ([2]; male, C57BL/6J, plasma, 0.5 h after oral (intragastric) administration, read-out: Plasma drug concentration): 435 nM; concentration at 2 h ([2]; male, C57BL/6J, plasma, 2 h after oral (intragastric) administration, read-out: Plasma drug concentration): 10.9 nM; concentration at 6 h ([2]; male, C57BL/6J, plasma, 6 h after oral (intragastric) administration, read-out: Plasma drug concentration): 5.79 nM; liver drug-time curve (area) [2, 6]: 9.347 µM·h; plasma drug-time curve (area) [2, 6]: 0.314 µM·h
